Measured values from patent publication US20250122191A1, “COMPOUNDS AS BCL-2 INHIBITORS” (Fochon Biosciences, Ltd, priority 2021, published 2025).

What was measured:
[1] = system: RS4;11-BCL-2 G101V cells; assay: Cell proliferation assay (MTS), RS4;11-BCL-2 G101V engineered cells; type: cell-based; settings: Homo sapiens, 120 h, read-out: RS4, 11 BCL2-G101V IC50
Outline: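 Proliferation IC50 in RS4;11 lines engineered with BCL-2 mutations, measured by MTS at 490 nm after 72 h (D103E, D103Y) or 120 h (G101V, F104L) compound treatment at 37 °C.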

[2] = system: RS4;11-BCL-2 D103E cells; assay: Cell proliferation assay (MTS), RS4;11-BCL-2 D103E engineered cells; type: cell-based; settings: Homo sapiens, 72 h, read-out: RS4, 11 BCL2-D103E IC50
Text: MTS testing kit was purchased from Promega (Madison, WI, USA). The RPMI-1640, Fetal bovine serum and Penicillin-Streptomycin were purchased from BI (Biological Industries, Beit Haemek, Israel). Puromycin was purchased from Beyotime (shanghai, China). Dimethyl sulfoxide (DMSO) was purchased from Sigma (St. Louis., MO, USA). RS4;11-BCL-2 G101V (Cobioer Lot. #: CBD2021063013P4), RS4;11-BCL-2 D103E (Cobioer Lot. #: CBD2021063013P4), RS4;11-BCL-2 D103Y (Cobioer Lot. #: CBD2022012101P4) and RS4;11-BCL-2 F104L (Cobioer Lot. #: CBD2021063014P4) cells were cultured in RPMI1640 supplemented with 1 ug/mL puromycin, 100 U/mL Penicillin-Streptomycin and 10% FBS.
To investigate whether a compound is able to inhibit the activity of BCL-2 mutation in cells, a mechanism-based assay using engineered cell lines stably overexpressing BCL-2 mutation (RS4;11-BCL-2 G101V, RS4;11-BCL-2 D103E, RS4;11-BCL-2 D103Y, and RS4;11-BCL-2 F104L) was developed. In this assay, the inhibition of BCL-2 mutation was reflected by the inhibition of cell proliferation of engineered RS4;11 cells. Cells were plated into 96-well plates at optimized cell density (RS4;11-BCL-2 G101V: 5000 cells/well; RS4;11-BCL-2 D103E: 7500 cells/well; RS4;11-BCL-2 D103Y: 7500 cells/well; RS4;11-BCL-2 F104L: 5000 cells/well). Plates were incubated at 37° C., with 5% CO2 for 4 h (RS4;11-BCL-2 G101V, RS4;11-BCL-2 F104L) and 24 h (RS4;11-BCL-2 D103E, RS4;11-BCL-2 D103Y), respectively. Compounds were serially diluted and added to the plates with the final concentrations of 10000, 3333.3, 1111.1, 370.4, 123.5, 41.2, 13.7, 4.6 and 1.5 nM. Plates were incubated at 37° C., with 5% CO2 for 120 h (RS4; 11-BCL-2 G101V, RS4; 11-BCL-2 F104L) and 72 h (RS4;11-BCL-2 D103E, RS4;11-BCL-2 D103Y), respectively. 20 μl MTS was added into each well and the plates were incubated at 37° C., with 5% CO2 exactly for 2 h. The absorbance was measured by a microplate reader at 490 nm. IC50 values were calculated using GraphPad Prism 8.0 software.

SMILES	IC50 [1] [nM]	IC50 [2] [nM]
CC(C)c1ccccc1[C@@H]1CN(C(C)C)CCN1C1CC2(CCN(c3ccc(C(=O)NS(=O)(=O)c4cnc(NC[C@H]5CC[C@](C)(O)CC5)c([N+](=O)[O-])c4)c(Oc4cnc5[nH]cc(F)c5c4)c3)CC2)C1 [Example 185, 2-((3-fluoro-1H-pyrrolo[2,3-b]pyridin-5-yl)oxy)-N-((6-((((1r,4r)-4-hydroxy-4-methylcyclohexyl)methyl)amino)-5-nitropyridin-3-yl)sulfonyl)-4-(2-((R)-4-isopropyl-2-(2-isopropylphenyl)piperazin-1-yl)-7-azaspiro[3.5]nonan-7-yl)benzamide]	1	1
COc1nc2[nH]cc(F)c2cc1Oc1cc(N2CCC3(CC2)CC(N2CCN(Cc4ccnc5c4OCO5)C[C@H]2c2ccccc2C(C)C)C3)ccc1C(=O)NS(=O)(=O)c1cnc(NC[C@H]2CC[C@](C)(O)CC2)c([N+](=O)[O-])c1 [Example 189, 4-(2-((R)-4-([1,3]dioxolo[4,5-b]pyridin-7-ylmethyl)-2-(2-isopropylphenyl)piperazin-1-yl)-7-azaspiro[3.5]nonan-7-yl)-2-((3-fluoro-6-methoxy-1H-pyrrolo[2,3-b]pyridin-5-yl)oxy)-N-((6-((((1r,4r)-4-hydroxy-4-methylcyclohexyl)methyl)amino)-5-nitropyridin-3-yl)sulfonyl)benzamide]	–	1
COc1nc2[nH]cc(F)c2cc1Oc1cc(N2CCC3(CC2)CC(N2CCN(Cc4ccnc5c4OCCO5)C[C@H]2c2ccccc2C(C)C)C3)ccc1C(=O)NS(=O)(=O)c1cnc(NC[C@H]2CC[C@](C)(O)CC2)c([N+](=O)[O-])c1 [Example 191, 4-(2-((R)-4-((2,3-dihydro-[1,4]dioxino[2,3-b]pyridin-8-yl)methyl)-2-(2-isopropylphenyl)piperazin-1-yl)-7-azaspiro[3.5]nonan-7-yl)-2-((3-fluoro-6-methoxy-1H-pyrrolo[2,3-b]pyridin-5-yl)oxy)-N-((6-((((1r,4r)-4-hydroxy-4-methylcyclohexyl)methyl)amino)-5-nitropyridin-3-yl)sulfonyl)benzamide]	–	1
COc1cc(CN2CCN(C3CC4(CCN(c5ccc(C(=O)NS(=O)(=O)c6cnc(OC[C@H]7CC[C@](C)(O)CC7)c([N+](=O)[O-])c6)c(Oc6cc7c(F)c[nH]c7nc6OC)c5)CC4)C3)[C@H](c3ccccc3C(C)C)C2)ccn1 [Example 261, 2-((3-fluoro-6-methoxy-1H-pyrrolo[2,3-b]pyridin-5-yl)oxy)-N-((6-(((1r,4r)-4-hydroxy-4-methylcyclohexyl)methoxy)-5-nitropyridin-3-yl)sulfonyl)-4-(2-((R)-2-(2-isopropylphenyl)-4-((2-methoxypyridin-4-yl)methyl)piperazin-1-yl)-7-azaspiro [3.5]nonan-7-yl)benzamide]	–	2
COC1CCC(N2CCN(C3CC4(CCN(c5ccc(C(=O)NS(=O)(=O)c6cnc(NC[C@H]7CC[C@](C)(O)CC7)c([N+](=O)[O-])c6)c(Oc6cnc7[nH]cc(F)c7c6)c5)CC4)C3)[C@H](c3ccccc3C(C)C)C2)CC1 (stereo partly drawn) [Example 326, 2-((3-fluoro-1H-pyrrolo[2,3-b]pyridin-5-yl)oxy)-N-((6-((((1r,4r)-4-hydroxy-4-methylcyclohexyl)methyl)amino)-5-nitropyridin-3-yl)sulfonyl)-4-(2-((R)-2-(2-isopropylphenyl)-4-(4-methoxycyclohexyl)piperazin-1-yl)-7-azaspiro[3.5]nonan-7-yl)benzamide]	–	1

Further lines, results first:

IC50 [1] [nM]	IC50 [2] [nM]	SMILES
1	1	COc1cc(CN2CCN(C3CC4(CCN(c5ccc(C(=O)NS(=O)(=O)c6cnc(NC[C@H]7CC[C@](C)(O)CC7)c([N+](=O)[O-])c6)c(Oc6cc7c(F)c[nH]c7nc6OC)c5)CC4)C3)[C@H](c3ccccc3C(C)C)C2)cnc1OC [Example 123, 4-(2-((R)-4-((5,6-dimethoxypyridin-3-yl)methyl)-2-(2-isopropylphenyl)piperazin-1-yl)-7-azaspiro[3.5]nonan-7-yl)-2-((3-fluoro-6-methoxy-1H-pyrrolo[2,3-b]pyridin-5-yl)oxy)-N-((6-((((1r,4r)-4-hydroxy-4-methylcyclohexyl)methyl)amino)-5-nitropyridin-3-yl)sulfonyl)benzamide]
–	1	COc1nccc(CN2CCN(C3CC4(CCN(c5ccc(C(=O)NS(=O)(=O)c6cnc(NC[C@H]7CC[C@](C)(O)CC7)c([N+](=O)[O-])c6)c(Oc6cc7c(F)c[nH]c7nc6OC)c5)CC4)C3)[C@H](c3ccccc3C(C)C)C2)n1 [Example 165, 2-((3-fluoro-6-methoxy-1H-pyrrolo[2,3-b]pyridin-5-yl)oxy)-N-((6-((((1r,4r)-4-hydroxy-4-methylcyclohexyl)methyl)amino)-5-nitropyridin-3-yl)sulfonyl)-4-(2-((R)-2-(2-isopropylphenyl)-4-((2-methoxypyrimidin-4-yl)methyl)piperazin-1-yl)-7-azaspiro[3.5]nonan-7-yl)benzamide]
–	1	COc1nc2[nH]cc(F)c2cc1Oc1cc(N2CCC3(CC2)CC(N2CCN(Cc4ccnc5c4OC(C)CN5)C[C@H]2c2ccccc2C(C)C)C3)ccc1C(=O)NS(=O)(=O)c1cnc(NC[C@H]2CC[C@](C)(O)CC2)c([N+](=O)[O-])c1 (stereo partly drawn) [Example 196, 2-((3-fluoro-6-methoxy-1H-pyrrolo[2,3-b]pyridin-5-yl)oxy)-N-((6-((((1r,4r)-4-hydroxy-4-methylcyclohexyl)methyl)amino)-5-nitropyridin-3-yl)sulfonyl)-4-(2-((2R)-2-(2-isopropylphenyl)-4-((2-methyl-3,4-dihydro-2H-pyrido[3,2-b][1,4]oxazin-8-yl)methyl)piperazin-1-yl)-7-azaspiro[3.5]nonan-7-yl)benzamide]
–	1	COc1nc2[nH]cc(F)c2cc1Oc1cc(N2CCC3(CC2)CC(N2CCN(Cc4ccnc(O)c4)C[C@H]2c2ccccc2C(C)C)C3)ccc1C(=O)NS(=O)(=O)c1cnc(NC[C@H]2CC[C@](C)(O)CC2)c([N+](=O)[O-])c1 [Example 199, 2-((3-fluoro-6-methoxy-1H-pyrrolo[2,3-b]pyridin-5-yl)oxy)-N-((6-((((1r,4r)-4-hydroxy-4-methylcyclohexyl)methyl)amino)-5-nitropyridin-3-yl)sulfonyl)-4-(2-((R)-4-((2-hydroxypyridin-4-yl)methyl)-2-(2-isopropylphenyl)piperazin-1-yl)-7-azaspiro[3.5]nonan-7-yl)benzamide]
1	3	CCOc1nc2[nH]cc(F)c2cc1Oc1cc(N2CCC3(CC2)CC(N2CCN(Cc4cnc(C5CC5)c(OC)c4)C[C@H]2c2ccccc2C(C)C)C3)ccc1C(=O)NS(=O)(=O)c1cnc(NC[C@H]2CC[C@](C)(O)CC2)c([N+](=O)[O-])c1 [Example 253, 4-(2-((R)-4-((6-cyclopropyl-5-methoxypyridin-3-yl)methyl)-2-(2-isopropylphenyl)piperazin-1-yl)-7-azaspiro[3.5]nonan-7-yl)-2-((6-ethoxy-3-fluoro-1H-pyrrolo[2,3-b]pyridin-5-yl)oxy)-N-((6-((((1r,4r)-4-hydroxy-4-methylcyclohexyl)methyl)amino)-5-nitropyridin-3-yl)sulfonyl)benzamide]
1	1	COc1cc(CN2CCN(C3CC4(CCN(c5ccc(C(=O)NS(=O)(=O)c6cnc(NC[C@H]7CC[C@](C)(O)CC7)c([N+](=O)[O-])c6)c(Oc6cnc7[nH]cc(F)c7c6)c5)CC4)C3)[C@H](c3ccccc3C(C)C)C2)cnc1OC [Example 259, 4-(2-((R)-4-((5,6-dimethoxypyridin-3-yl)methyl)-2-(2-isopropylphenyl)piperazin-1-yl)-7-azaspiro[3.5]nonan-7-yl)-2-((3-fluoro-1H-pyrrolo[2,3-b]pyridin-5-yl)oxy)-N-((6-((((1r,4r)-4-hydroxy-4-methylcyclohexyl)methyl)amino)-5-nitropyridin-3-yl)sulfonyl)benzamide]
